The nature of data set [1]: Incubation in simulated gastric fluid. The format is physicochemical. The conditions noted are these: room temperature, 3 h. An excerpt:
(§1) A taurine-conjugated metabolite was subsequently identified in bile (M1, Figure 4), which was also observed in circulating plasma, although at much lower concentrations (∼5%) compared to parent. Further, two oxidized products, one of which was also a taurine-conjugate, were identified (M2 and M3) in plasma. […] It is known that taurine can be conjugated to bile acids and these conjugates may be hydrolyzed in the gut which allows for bile acid reabsorbtion.[19]

Data set [2] in a line: Metabolite profile of 5c in the rat. The data set is classed as in vivo. The note with it: rat, after dosing of 5c.
From the text: as §1

The target in data set [3] is T1, IP (Homo sapiens, UniProt P43119). Description: HTRF cAMP assay, recombinant human IP receptor stably expressed in CHO-K1 cells. The format is cell-based. Details: expressed in transfected cells. (In general: Time-resolved FRET reads energy transfer from a long-lived donor to a nearby acceptor.)
In data set [4] the target is T1, IP. Description: Radioligand binding, human IP ([3H]-iloprost). Also noted: expressed in transfected cells; host or cells: CHO-K1 (crude membranes). The conditions noted are these: Figure 4; read-out: Ki hIP. As to the method:
CHO-K1 cells expressing recombinant IP receptors were harvested, washed with ice-cold phosphate buffered saline, pH 7.4 (PBS), and then centrifuged at 48 000g for 20 min at 4 °C. The resulting cell pellet was then resuspended in ice-cold PBS containing 20 mM HEPES, pH 7.4, and 0.1 mM EDTA, homogenized on ice using a Brinkman Polytron, and centrifuged (48 000g for 20 min at 4 °C). This resuspension and centrifugation process was repeated one further time. Crude membrane pellets were stored at −80 °C until used for radioligand binding assays.
Assay incubations were terminated by rapid filtration through PerkinElmer GF/C filtration plates pretreated with 0.3% PEI, under vacuum pressure using a 96-well Packard filtration apparatus, followed by multiple washes with ice-cold wash buffer (PBS containing 20 mM HEPES and 0.1 mM EDTA, pH 7.4). Plates were then dried at 45 °C for a minimum of 2 h. Finally, 25 μL of BetaScint scintillation cocktail was added to each well and plates were counted in a Packard TopCount scintillation counter. In each competition study, test compounds were dosed at 10 concentrations with triplicate determinations at each test concentration.

The next data set has as its target T2, human DP1 receptor (Homo sapiens, UniProt Q13258).
T2 construct: expressed in transfected cells
T2 sequence (Q13258 1-359): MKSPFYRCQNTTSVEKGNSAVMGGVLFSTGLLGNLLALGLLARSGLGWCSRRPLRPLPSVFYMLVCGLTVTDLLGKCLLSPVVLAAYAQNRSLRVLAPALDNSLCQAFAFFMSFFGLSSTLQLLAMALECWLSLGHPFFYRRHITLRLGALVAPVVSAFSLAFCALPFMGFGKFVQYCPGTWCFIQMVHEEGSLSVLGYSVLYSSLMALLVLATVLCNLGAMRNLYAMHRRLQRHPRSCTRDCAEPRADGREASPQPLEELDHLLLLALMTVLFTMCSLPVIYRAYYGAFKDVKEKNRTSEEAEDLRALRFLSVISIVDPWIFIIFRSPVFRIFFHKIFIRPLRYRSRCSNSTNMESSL
The note with it: earlier series; cited from earlier work.

T1 sequence (P43119 whole entry): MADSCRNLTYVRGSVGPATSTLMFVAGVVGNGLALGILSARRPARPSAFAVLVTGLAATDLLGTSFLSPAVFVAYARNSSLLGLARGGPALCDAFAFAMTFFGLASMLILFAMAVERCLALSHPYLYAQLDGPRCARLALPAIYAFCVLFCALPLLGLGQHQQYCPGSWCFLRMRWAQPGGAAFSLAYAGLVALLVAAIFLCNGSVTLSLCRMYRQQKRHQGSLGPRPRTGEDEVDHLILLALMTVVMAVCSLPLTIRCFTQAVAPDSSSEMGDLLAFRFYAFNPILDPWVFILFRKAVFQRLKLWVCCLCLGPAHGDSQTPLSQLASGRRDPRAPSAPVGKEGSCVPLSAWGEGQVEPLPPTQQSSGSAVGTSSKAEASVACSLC

Regarding `O=C(COC[C@H]1CC[C@H](COC(=O)N(c2ccccc2)c2ccc(Cl)cc2)CC1)NCCS(=O)(=O)O` [M1, 2-(2-(((1r,4r)-4-(((4-Chlorophenyl)(phenyl)carbamoyloxy)methyl)cyclohexyl)methoxy)acetamido)ethanesulfonic Acid], the “chemical degradation to the parent in simulated gastric fluid” value in data set [1] is listed as “little chemical degradation”. Further, in data set [2], the “concentration in circulating plasma compared to parent” value is around 5%. Besides, the Emax at IP [3] (CHO-K1, read-out: hIP % IA) was 76%. Moreover, the 50% effective concentration (EC50) (usually the midpoint of the concentration-response curve) on IP [3] (HTRF (cAMP) human IP receptor assay, mean of at least three determinations) came out at 930 nM. In addition, the inhibition constant Ki (in general, a measure of affinity in units of concentration, obtained from inhibition or displacement) on IP [4] came to 400 nM.

For the molecule `O=C(O)COc1cccc2c1CC[C@H](Cn1ncc(-c3cccc(F)c3F)c(-c3ccc(F)cc3)c1=O)C2` [compound 3], the “IP to DP1 selectivity ratio” value at human DP1 receptor was 8 fold.
